Patent publication US4912116A, “Propiophenone derivatives for treatment of pollakiuria (frequency urination)” (Hokuriku Pharmaceutical Co., Ltd., priority 1986, dated 1990)

System: micturition reflex (rhythmic bladder contractions)
Test: Inhibition of micturition reflex (rhythmic bladder contractions) in unanesthetized, gallamine-immobilized rats
Assay type: in vivo, Male Wister rats
Conditions: for Disappearance time (of bladder contractions): i.v., 4 rats, mean ± S.E., saline 9.0 ± 1.8; for Inhibition Rate: i.d., 15 min after administration, 0.5% CMC 11.9 ± 7.9
Experimental: statistical analysis: Each data of Experiment 1-6 represents the mean±S.E. statistical analysis of the data was performed using student's t-test.
Male Wister rats weighing about 300 g (in case of intraduodenal administration, fasted more than 15 hours) were anesthetized with ether and immobilized with gallamine (5 mg/kg, i.v.) and fixed on their back. As soon as that procedure was finished anesthesia was discontinuted.
In the experiment, infusion of gallamine, 13 mg/kg/hr, i.v. (in case of intraduodenum administration, 10 mg/kg/hr, i.v.) was continuted, and artificial respiration was performed (90 times/min, 3 ml air/time).
Then, through a midline incision of the abdomen, the urinary bladder was exposed; a small incision provided therein, and a balloon (capacity about 1 ml) was inserted into the bladder dome.
The balloon was connected to a pressure transducer and variations of inside pressure were recorded on a recorder.
Micturition reflex was elicited by raising the balloon pressure 10-20 cm H2 O.
In case of intravenous administration, the drug was administrated through a cannula inserted into the left jugular vein, and in case of intraduodenal administration the drug was administrated through a cannula inserted into the duodenum from outside the stomach.
In case of intravenous administration, the effect of the drug was represented by the disappearance time of bladder contractions caused by micturition reflex.
In case of intraduodenal administration, the sum total of amplitude of bladder contractions caused by micturition reflex was calculated during each five minutes at 5 min before and 15, 30, 45, 60, 75, 90, 105 and 120 min after the administration.
Then, inhibition rate was calculated by the sum total of amplitude of bladder contractions at each point compared with that before the administration.

Q: What does the source list for `CCc1ccc(C(=O)C(C)CN2CCCC2)cc1` (centres unmarked) [Compound 1]?
A: Disappearance time (of bladder contractions) (4 mg/kg): 52.8 ± 23.4 min; Disappearance time (of bladder contractions) (8 mg/kg, * p < 0.05 vs control): 249.0 ± 45.0 min; Inhibition Rate (12.5 mg/kg, * p < 0.05): 36.1 ± 4.4%; Inhibition Rate (25 mg/kg, ** p < 0.01): 53.8 ± 6.9%; Inhibition Rate (50 mg/kg, ** p < 0.01): 87.9 ± 5.1%
